From US6720346B2, “Thiazole benzamide derivatives and pharmaceutical compositions for inhibiting cell proliferation” (Agouron Pharmaceuticals, Inc., priority 2001, dated 2004)
Counter-ions that a name gives are not always drawn.

What was measured:
[1] = molecular target: T1, Phosphorylated FGF receptor kinase (FGFR1 cytosolic domain) (Homo sapiens, UniProt P11362, C488A/C584S/L457V); assay: Inhibition of phosphorylated FGF receptor tyrosine kinase activity (coupled spectrophotometric assay); assay type: biochemical; conditions: read-out: P-FGF % Inhibition at 1 μM
T1 construct: FGFR1 tyrosine kinase (amino acids 456-766); made in house; host or cells: Sf9 insect cells (baculovirus)
T1 sequence (P11362 456-766 L457V/C488A/C584S): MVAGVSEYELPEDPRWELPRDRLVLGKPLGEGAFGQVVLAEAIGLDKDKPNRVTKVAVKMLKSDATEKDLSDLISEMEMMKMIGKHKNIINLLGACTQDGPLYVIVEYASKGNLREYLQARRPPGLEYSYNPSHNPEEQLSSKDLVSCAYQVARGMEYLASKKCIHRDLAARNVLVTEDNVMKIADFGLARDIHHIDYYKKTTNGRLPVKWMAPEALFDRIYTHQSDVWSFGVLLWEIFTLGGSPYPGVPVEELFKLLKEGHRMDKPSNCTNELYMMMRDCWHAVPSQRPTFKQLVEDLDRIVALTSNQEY
Experimental: (§1) Cloning, expression and purification of the cytosolic domain of FGFR1 tyrosine kinase (amino acids 456-766) containing three amino acid substitutions (L457V, C488A, and C584S) were conducted as previously described (Mohammadi, M., Schiessinger, J., & Hubbard, S. R. Cell, 86, (1996) 577-587). This domain was expressed in Sf9 insect cells using a baculovirus expression vector, and protein was purified using conventional techniques. The LCK tyrosine kinase was expressed in insect cells as an N-terminal deletion starting from amino acid 223 to the end of the protein at amino acid 509. The N-terminus of the protein also had two amino acid substitutions, P223M and C224D. Kinases were purified using conventional chromatographic methods.
(§2) Tyrosine kinase activity was measured using a coupled, continuous spectrophotometric assay, in which production of phosphorylated poly(Glu,Tyr; 4:1) substrate and ADP is coupled to the pyruvate kinase-catalyzed transfer of a phosphate from phosphoenolpyruvate to ADP, with generation of pyruvate and regeneration of ATP. Pyruvate production is in turn coupled to the lactate dehydrogenase-catalyzed reduction of pyruvate to form lactate, with concomitant conversion of NADH to NAD^+. Loss of NADH is monitored by measuring absorbance at 340 nm (see e.g., Technikova-Dobrova et al., “Spectrophotometric Determination of Functional Characteristics of Protein Kinases with Coupled Enzymatic Assay,” FEBS Letters, 292 (1991), pp. 69-72). Enzyme activity was measured in the presence of 200 mM HEPES (pH 7.5), 2 mM phosphoenolpyruvate, 0.3 mM NADH, 20 mM MgCl2, 100 μM ATP, 5 mM DTT, 5.1 or 25 mM poly (Glu,Tyr) 4:1 for P-FGF or P-LCK assays, respectively, and 15 units/mL each of pyruvate kinase and lactate dehydrogenase. Phosphorylated FGF receptor kinase was present at 100 nM and phosphorylated LCK kinase was present at 50 nM. Assays were performed under initial rate conditions at 37° C., and rates were corrected for any background rate measured in the absence of enzyme. Percent inhibition was calculated relative to control enzyme assayed in the presence of 2% (v/v) DMSO.

CDK2/cyclin A = molecular target: T2, CDK2/cyclin A (Homo sapiens, UniProt P24941); assay: Inhibition of CDK2/cyclin A retinoblastoma kinase activity (Ki; % inhibition); assay type: biochemical; conditions: for Ki: apparent Ki, CDK2/cyclin A, Rb substrate
T2 construct: made in house; host or cells: CDK2: insect cells (baculovirus); cyclin A: E. coli
Outline: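 Radiometric filter assay of CDK2/proteolyzed cyclin A (baculovirus-expressed human CDK2, 10 or 19 nM) phosphorylating an Rb fragment with 25 μM [³²P/³³P]ATP in pH 7.4 HEPES, 2% DMSO, at 30 °C for 60 or 75 min under initial-rate conditions. Library compounds screened at 30 nM for % inhibition; apparent Ki from concentration series fit to competitive or tight-binding inhibition equations.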

[2] = molecular target: T3, phosphorylated LCK kinase (Homo sapiens, UniProt P06239, C224D/P223M); assay: Inhibition of phosphorylated LCK tyrosine kinase activity (coupled spectrophotometric assay); assay type: biochemical; conditions: read-out: P-LCK % Inhibition at 1 μM
T3 construct: starting from amino acid 223 to the end of the protein at amino acid 509; made in house; host or cells: insect cells
T3 sequence (P06239 223-509 P223M/C224D): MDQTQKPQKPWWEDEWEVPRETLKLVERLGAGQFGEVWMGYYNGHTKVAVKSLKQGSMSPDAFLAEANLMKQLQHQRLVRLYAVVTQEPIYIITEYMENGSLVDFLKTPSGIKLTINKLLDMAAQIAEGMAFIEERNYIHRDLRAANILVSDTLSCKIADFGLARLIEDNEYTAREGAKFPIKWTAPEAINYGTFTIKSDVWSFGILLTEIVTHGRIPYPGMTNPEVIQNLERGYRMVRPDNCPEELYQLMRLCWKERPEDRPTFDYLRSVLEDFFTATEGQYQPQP
Experimental: as §1, §2

human CDK4/cyclin D3 = molecular target: T4, human CDK4/cyclin D3 (Homo sapiens, UniProt P11802); assay: Inhibition of CDK4/cyclin D retinoblastoma kinase activity (Ki; % inhibition); assay type: biochemical; conditions: for Ki: apparent Ki, CDK4/cyclin D3, Rb substrate
T4 construct: made in house; host or cells: insect cells co-infected with baculovirus vectors
T4 sequence (P11802 whole entry): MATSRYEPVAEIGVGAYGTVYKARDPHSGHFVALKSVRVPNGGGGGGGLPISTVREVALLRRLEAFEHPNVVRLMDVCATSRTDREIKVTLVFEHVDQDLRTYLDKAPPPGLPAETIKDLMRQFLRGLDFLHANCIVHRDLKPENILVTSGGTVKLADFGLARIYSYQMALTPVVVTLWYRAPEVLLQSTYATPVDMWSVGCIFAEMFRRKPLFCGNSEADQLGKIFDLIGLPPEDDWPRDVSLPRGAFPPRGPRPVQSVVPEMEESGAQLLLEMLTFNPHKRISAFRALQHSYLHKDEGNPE
T4 sequence (P30281 1-264 partner limits assumed): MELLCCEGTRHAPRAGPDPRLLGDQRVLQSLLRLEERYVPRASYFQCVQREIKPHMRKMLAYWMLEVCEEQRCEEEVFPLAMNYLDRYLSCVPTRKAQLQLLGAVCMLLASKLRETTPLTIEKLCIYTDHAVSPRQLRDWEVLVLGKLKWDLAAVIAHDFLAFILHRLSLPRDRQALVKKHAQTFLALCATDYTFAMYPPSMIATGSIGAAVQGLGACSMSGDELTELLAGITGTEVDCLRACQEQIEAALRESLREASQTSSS
Outline: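 Insect-cell-expressed CDK4 with truncated cyclin D3 (1-264), 5 nM, phosphorylating His-tagged Rb fragment (386-928) with 25 μM [32/33P]ATP at pH 7.4, 30 °C, 20 min (60 min for tight binders). Filter capture, phosphorimager read; % inhibition at 30 nM compound, Ki from competitive or tight-binding fits.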

HCT-116 cell line = assay: Inhibition of cell growth, MTT tetrazolium salt assay; assay type: cell-based; conditions: for IC50: Homo sapiens, HCT-116, 120 h, MTT, three to five days
Outline: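 Growth inhibition was read as MTT-formazan absorbance at 540 nm, after 4 h with 0.2 mg/mL MTT. Before that, HCT-116 cells had been exposed 3–5 days at 37 °C to compounds in 0.5% (v/v) DMSO, added 4 h after plating. 50% and 90% inhibitory concentrations were taken from semi-log concentration–inhibition plots versus vehicle controls.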

[3] = HCT-116 cells, 0.25 μM compound

Row | SMILES | Ki (CDK2/cyclin A) [nM] | Ki (human CDK4/cyclin D3) [nM] | IC50 (HCT-116 cell line) [nM] | CDK2 % Inhibition at 0.03 μM (CDK2/cyclin A; 0.03 μM compound) [%] | CDK4 % Inhibition at 0.03 μM (human CDK4/cyclin D3; 0.03 μM compound) [%] | CDK2 % Inhibition at 0.03 μM (CDK2/cyclin A; at 0.03 μM) [%] | CDK4 % Inhibition at 0.03 μM (human CDK4/cyclin D3; at 0.03 μM) [%] | HCT-116 % Inhibition at 0.1 μM (HCT-116 cell line; HCT-116 cells, 0.1 μM compound) [%] | HCT-116 % Inhibition at 0.25 μM (HCT-116 cell line; [3]) [%] | HCT-116 % Inhibition at 0.25 μM (HCT-116 cell line; HCT-116, at 0.25 μM) [%] | other results
1 | Nc1nc(Nc2ccc(C(=O)Nc3ccccc3)cc2)sc1C(=O)c1c(F)cccc1F [Example A9, 4-[4-Amino-5-(2,6-difluoro-benzoyl)-thiazol-2-ylamino]-N-phenyl-benzamide] | 27 | 12 | 140 |  |  |  |  |  |  |  | inhibition at 1 µM [1]: 5%; inhibition at 1 µM [2]: 5%
2 | CN(C)CCN(C)C(=O)c1ccc(Nc2nc(N)c(C(=O)c3c(F)cccc3F)s2)cc1 [Example A3, 4-[4-Amino-5-(2,6-difluoro-benzoyl)-thiazol-2-ylamino]-N-(2-dimethylamino-ethyl)-N-methyl-benzamide] | 170 | 21 | 750 |  |  |  |  |  |  |  | inhibition at 1 µM [1]: 7%; inhibition at 1 µM [2]: 5%
3 | CC(=O)N(C)c1ccc(NC(=O)c2ccc(Nc3nc(N)c(C(=O)c4c(F)cccc4F)s3)cc2)cc1 [Example A25] | 62 | 13 | 94 |  |  |  |  |  |  |  | inhibition at 1 µM [1]: 0%; inhibition at 1 µM [2]: 0%
4 | Nc1nc(Nc2ccc(C(=O)Nc3ccc4c(c3)OCCO4)cc2)sc1C(=O)c1c(F)cccc1F [Example A17, 4-[4-Amino-5-(2,6-difluoro-benzoyl)-thiazol-2-ylamino]-N-(2,3-dihydro-benzo[1,4]dioxin-6-yl)-benzamide] | 51 | 26 | 100 |  |  |  |  |  |  |  | inhibition at 1 µM [1]: 0%; inhibition at 1 µM [2]: 0%
5 | CCN1CCCC1CNC(=O)c1ccc(Nc2nc(N)c(C(=O)c3c(F)cccc3F)s2)cc1 (stereo not drawn) [Example A11, 4-[4-Amino-5-(2,6-difluoro-benzoyl)-2-ylamino]-N-(1-ethyl-pyrrolidin-2RS-ylmethyl)-benzamide] | 82 | 14 | 170 |  |  |  |  |  |  |  | inhibition at 1 µM [2]: 6%
6 | CC1(C)CC(CNC(=O)c2ccc(Nc3nc(N)c(C(=O)c4c(F)cccc4F)s3)cc2)C(C)(C)N1 (stereo not drawn) [Example A56, 4-[4-Amino-5-(2,6-difluoro-benzoyl)-thiazol-2-ylamino]-N-(2,2,5,5-tetramethyl-pyrrolidin-3R,S-ylmethyl)-benzamide Dihydrochloride Salt] | 67 | 8 | 4500 |  |  |  |  |  |  |  | 

The next lines start with results.

Row | Ki (CDK2/cyclin A) [nM] | Ki (human CDK4/cyclin D3) [nM] | IC50 (HCT-116 cell line) [nM] | CDK2 % Inhibition at 0.03 μM (CDK2/cyclin A; 0.03 μM compound) [%] | CDK4 % Inhibition at 0.03 μM (human CDK4/cyclin D3; 0.03 μM compound) [%] | CDK2 % Inhibition at 0.03 μM (CDK2/cyclin A; at 0.03 μM) [%] | CDK4 % Inhibition at 0.03 μM (human CDK4/cyclin D3; at 0.03 μM) [%] | SMILES | HCT-116 % Inhibition at 0.1 μM (HCT-116 cell line; HCT-116 cells, 0.1 μM compound) [%] | HCT-116 % Inhibition at 0.25 μM (HCT-116 cell line; [3]) [%] | HCT-116 % Inhibition at 0.25 μM (HCT-116 cell line; HCT-116, at 0.25 μM) [%] | other results
7 |  |  |  | 29 | 34 |  |  | Nc1nc(Nc2ccc(C(=O)NCc3ccccc3F)cc2)sc1C(=O)c1c(F)cccc1F [Example G221] | 20 | 74 |  | 
8 |  |  |  |  |  | −30 | 2 | CCCCC(CC)NC(=O)c1ccc(Nc2nc(N)c(C(=O)c3c(F)cccc3F)s2)cc1 (stereo not drawn) [Example G90] |  |  | 54 | HCT-116 % Inhibition at 0.1 μM (HCT-116 cell line; HCT-116, at 0.1 μM): 24%
9 |  |  |  | −23 | −14 |  |  | CC(C)(C)C1CCC(NC(=O)c2ccc(Nc3nc(N)c(C(=O)c4c(F)cccc4F)s3)cc2)CC1 (stereo not drawn) [Example G267] | 24 | 44 |  | 
10 |  |  |  | 26 | 17 |  |  | CC(C)(C)c1ccc(CNC(=O)c2ccc(Nc3nc(N)c(C(=O)c4c(F)cccc4F)s3)cc2)cc1 [Example G270] | 15 | 45 |  | 
11 |  |  |  |  |  | −7 | 4 | CCCCN(CCO)C(=O)c1ccc(Nc2nc(N)c(C(=O)c3c(F)cccc3F)s2)cc1 [Example G4] |  |  | 53 | 
12 |  |  |  | 6 | 10 |  |  | CCCc1ccc(NC(=O)c2ccc(Nc3nc(N)c(C(=O)c4c(F)cccc4F)s3)cc2)cc1 [Example G204] | 19 | 49 |  | 
13 |  |  |  |  |  | 15 | 17 | CC(O)CNC(=O)c1ccc(Nc2nc(N)c(C(=O)c3c(F)cccc3F)s2)cc1 (stereo not drawn) [Example G110] |  |  | 52 | HCT-116 % Inhibition at 0.1 μM (HCT-116 cell line; HCT-116, at 0.1 μM): 0%
14 |  |  |  | 36 | 41 |  |  | CN(CC(O)c1ccccc1)C(=O)c1ccc(Nc2nc(N)c(C(=O)c3c(F)cccc3F)s2)cc1 (stereo not drawn) [Example G225] | 0 | 51 |  | 
15 |  |  |  | 10 | 21 |  |  | CCCN(CCO)C(=O)c1ccc(Nc2nc(N)c(C(=O)c3c(F)cccc3F)s2)cc1 [Example G233] | 16 | 48 |  | 
16 |  |  |  |  |  | 36 | 54 | Nc1nc(Nc2ccc(C(=O)NCc3ccc4c(c3)OCO4)cc2)sc1C(=O)c1c(F)cccc1F [Example G172] |  |  | 61 | HCT-116 % Inhibition at 0.1 μM (HCT-116 cell line; HCT-116, at 0.1 μM): 37%
17 |  |  |  |  |  | 17 | 6 | Nc1nc(Nc2ccc(C(=O)Nc3ccccc3CO)cc2)sc1C(=O)c1c(F)cccc1F [Example G53] |  |  | 89 | 
18 |  |  |  | −9 | 12 |  |  | Nc1nc(Nc2ccc(C(=O)Nc3ccc(Cl)nc3)cc2)sc1C(=O)c1c(F)cccc1F [Example G281] | 6 | 63 |  | 
19 |  |  |  | 32 | 27 |  |  | Nc1nc(Nc2ccc(C(=O)NCCc3c[nH]c4ccccc34)cc2)sc1C(=O)c1c(F)cccc1F [Example G271] | 8 | 49 |  | 
20 |  |  |  |  |  | 6 | 5 | CCC(COC)NC(=O)c1ccc(Nc2nc(N)c(C(=O)c3c(F)cccc3F)s2)cc1 (stereo not drawn) [Example G159] |  |  | 74 | HCT-116 % Inhibition at 0.1 μM (HCT-116 cell line; HCT-116, at 0.1 μM): 0%
